Assay [1] addresses Cyclin-dependent kinase-like 3 (Homo sapiens) (UniProt Q8IVW4). Conditions: at 10 µM.
The target in assay [2] is T1, Phosphatidylinositol 3-kinase C2 domain-containing subunit gamma (Homo sapiens) (UniProt O75747).
T1 sequence (whole entry): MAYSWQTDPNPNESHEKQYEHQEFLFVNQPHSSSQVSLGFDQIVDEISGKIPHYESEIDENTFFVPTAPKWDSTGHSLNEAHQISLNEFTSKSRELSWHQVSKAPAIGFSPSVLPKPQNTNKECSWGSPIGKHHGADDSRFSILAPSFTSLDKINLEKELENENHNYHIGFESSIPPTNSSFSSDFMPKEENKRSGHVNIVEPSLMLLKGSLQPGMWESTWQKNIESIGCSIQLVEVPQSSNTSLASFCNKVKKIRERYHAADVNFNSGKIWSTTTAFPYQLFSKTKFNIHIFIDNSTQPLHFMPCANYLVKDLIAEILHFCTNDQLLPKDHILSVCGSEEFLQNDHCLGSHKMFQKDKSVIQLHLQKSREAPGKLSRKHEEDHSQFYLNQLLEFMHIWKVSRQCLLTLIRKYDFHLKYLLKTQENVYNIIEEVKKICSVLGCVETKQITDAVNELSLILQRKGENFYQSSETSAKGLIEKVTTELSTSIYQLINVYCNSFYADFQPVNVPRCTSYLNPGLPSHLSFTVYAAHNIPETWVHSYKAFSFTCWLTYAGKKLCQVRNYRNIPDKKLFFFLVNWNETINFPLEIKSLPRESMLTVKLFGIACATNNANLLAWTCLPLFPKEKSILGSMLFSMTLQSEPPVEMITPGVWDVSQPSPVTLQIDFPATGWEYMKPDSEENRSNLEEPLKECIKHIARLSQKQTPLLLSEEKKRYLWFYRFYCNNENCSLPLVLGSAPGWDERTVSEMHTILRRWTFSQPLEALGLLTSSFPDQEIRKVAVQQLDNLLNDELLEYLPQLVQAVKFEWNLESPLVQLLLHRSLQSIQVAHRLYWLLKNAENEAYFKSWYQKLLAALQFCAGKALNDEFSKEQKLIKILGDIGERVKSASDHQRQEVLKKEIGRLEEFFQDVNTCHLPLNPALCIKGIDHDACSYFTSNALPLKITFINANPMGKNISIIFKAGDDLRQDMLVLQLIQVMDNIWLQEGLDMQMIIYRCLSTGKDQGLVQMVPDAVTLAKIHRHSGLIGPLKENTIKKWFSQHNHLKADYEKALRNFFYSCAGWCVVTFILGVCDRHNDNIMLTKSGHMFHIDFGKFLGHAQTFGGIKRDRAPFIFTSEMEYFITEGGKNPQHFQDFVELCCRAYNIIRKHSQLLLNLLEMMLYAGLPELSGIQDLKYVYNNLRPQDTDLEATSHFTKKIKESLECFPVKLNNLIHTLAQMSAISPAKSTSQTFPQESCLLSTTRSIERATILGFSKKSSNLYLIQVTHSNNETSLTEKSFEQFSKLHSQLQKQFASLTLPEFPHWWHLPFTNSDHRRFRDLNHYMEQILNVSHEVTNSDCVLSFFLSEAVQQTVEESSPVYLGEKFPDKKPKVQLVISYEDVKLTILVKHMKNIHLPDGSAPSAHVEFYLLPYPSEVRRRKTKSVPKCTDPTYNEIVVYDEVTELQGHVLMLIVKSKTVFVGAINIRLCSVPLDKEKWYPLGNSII
As to the kind of experiment: Selectivity interaction (KinomeScan (DiscoverX)) EUB0000092b PIK3C2G. As to conditions: at 10 µM.

Assay [3] deals with T2, Serine/threonine-protein kinase RIO1 (Homo sapiens) (UniProt Q9BRS2).
T2 sequence (whole entry): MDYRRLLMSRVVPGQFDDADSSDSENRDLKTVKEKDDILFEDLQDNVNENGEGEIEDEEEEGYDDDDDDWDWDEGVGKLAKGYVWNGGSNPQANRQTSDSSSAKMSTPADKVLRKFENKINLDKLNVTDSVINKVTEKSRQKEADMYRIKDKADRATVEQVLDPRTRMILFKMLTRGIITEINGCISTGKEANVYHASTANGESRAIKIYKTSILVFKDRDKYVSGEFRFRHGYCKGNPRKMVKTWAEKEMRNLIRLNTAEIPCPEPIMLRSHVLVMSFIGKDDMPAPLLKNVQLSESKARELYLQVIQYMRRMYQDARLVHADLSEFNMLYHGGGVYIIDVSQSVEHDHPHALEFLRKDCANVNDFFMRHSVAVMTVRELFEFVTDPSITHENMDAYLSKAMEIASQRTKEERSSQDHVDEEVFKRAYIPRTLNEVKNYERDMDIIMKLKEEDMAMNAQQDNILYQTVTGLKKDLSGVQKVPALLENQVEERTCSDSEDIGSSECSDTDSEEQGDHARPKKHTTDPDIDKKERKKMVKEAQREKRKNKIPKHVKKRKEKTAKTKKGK
The assay can be described thus: Selectivity interaction (KinomeScan (DiscoverX)) EUB0001049a RIOK1. As to conditions: at 1 µM.

Assay [4] has as its target Ribosomal protein S6 kinase alpha-5 (Homo sapiens) (UniProt O75582). As to the kind of experiment: Selectivity interaction (KinomeScan (DiscoverX)) EUB0001868a RPS6KA5. As to conditions: at 1 µM.
For assay [5], the target named is RAC-alpha serine/threonine-protein kinase (Homo sapiens, UniProt P31749). As to the kind of experiment: Selectivity interaction (SelectScreen profiling (Invitrogen)) EUB0000607a AKT1. Conditions: at 2 µM.
Chain of RAC-alpha serine/threonine-protein kinase (P31749 whole entry): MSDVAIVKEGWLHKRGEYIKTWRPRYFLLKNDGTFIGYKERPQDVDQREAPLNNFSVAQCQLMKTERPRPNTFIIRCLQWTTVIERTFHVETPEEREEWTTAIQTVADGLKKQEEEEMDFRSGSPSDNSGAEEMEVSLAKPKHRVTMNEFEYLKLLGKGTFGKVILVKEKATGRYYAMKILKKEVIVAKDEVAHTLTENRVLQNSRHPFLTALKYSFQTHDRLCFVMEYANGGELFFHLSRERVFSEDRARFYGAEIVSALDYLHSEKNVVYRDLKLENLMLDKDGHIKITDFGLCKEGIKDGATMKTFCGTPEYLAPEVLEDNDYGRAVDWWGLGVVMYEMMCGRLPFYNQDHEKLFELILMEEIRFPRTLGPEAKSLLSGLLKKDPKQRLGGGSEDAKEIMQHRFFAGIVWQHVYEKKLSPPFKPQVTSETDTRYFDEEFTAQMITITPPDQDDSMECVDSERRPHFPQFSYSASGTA
For assay [6], the target named is T3, Mitogen-activated protein kinase kinase kinase 3 (Homo sapiens) (UniProt Q99759).
T3 sequence (whole entry): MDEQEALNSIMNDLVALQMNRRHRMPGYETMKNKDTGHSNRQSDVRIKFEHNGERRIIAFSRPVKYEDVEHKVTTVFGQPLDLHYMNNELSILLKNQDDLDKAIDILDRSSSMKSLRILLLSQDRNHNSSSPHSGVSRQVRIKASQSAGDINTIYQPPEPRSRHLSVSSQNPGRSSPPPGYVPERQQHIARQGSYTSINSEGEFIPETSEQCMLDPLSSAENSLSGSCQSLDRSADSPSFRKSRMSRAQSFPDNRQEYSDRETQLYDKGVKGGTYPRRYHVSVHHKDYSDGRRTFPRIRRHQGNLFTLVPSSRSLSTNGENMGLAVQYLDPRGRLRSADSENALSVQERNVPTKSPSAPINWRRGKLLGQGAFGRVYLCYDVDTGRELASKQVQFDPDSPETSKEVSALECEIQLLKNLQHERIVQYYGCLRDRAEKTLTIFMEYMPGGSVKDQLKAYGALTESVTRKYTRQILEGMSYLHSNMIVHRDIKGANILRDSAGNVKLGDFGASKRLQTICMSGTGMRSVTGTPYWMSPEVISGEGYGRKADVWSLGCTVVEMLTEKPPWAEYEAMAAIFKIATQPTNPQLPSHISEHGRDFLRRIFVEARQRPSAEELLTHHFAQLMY
The assay can be described thus: Selectivity interaction (ActivX KiNativ screen (kinase selectivity in THP-1 cell lysates)) EUB0000639a MAP3K3. As to conditions: lysate. The class given is subcellular.

The structures appear in SMILES notation.

Chain of Ribosomal protein S6 kinase alpha-5 (Homo sapiens) (O75582 whole entry, looked up): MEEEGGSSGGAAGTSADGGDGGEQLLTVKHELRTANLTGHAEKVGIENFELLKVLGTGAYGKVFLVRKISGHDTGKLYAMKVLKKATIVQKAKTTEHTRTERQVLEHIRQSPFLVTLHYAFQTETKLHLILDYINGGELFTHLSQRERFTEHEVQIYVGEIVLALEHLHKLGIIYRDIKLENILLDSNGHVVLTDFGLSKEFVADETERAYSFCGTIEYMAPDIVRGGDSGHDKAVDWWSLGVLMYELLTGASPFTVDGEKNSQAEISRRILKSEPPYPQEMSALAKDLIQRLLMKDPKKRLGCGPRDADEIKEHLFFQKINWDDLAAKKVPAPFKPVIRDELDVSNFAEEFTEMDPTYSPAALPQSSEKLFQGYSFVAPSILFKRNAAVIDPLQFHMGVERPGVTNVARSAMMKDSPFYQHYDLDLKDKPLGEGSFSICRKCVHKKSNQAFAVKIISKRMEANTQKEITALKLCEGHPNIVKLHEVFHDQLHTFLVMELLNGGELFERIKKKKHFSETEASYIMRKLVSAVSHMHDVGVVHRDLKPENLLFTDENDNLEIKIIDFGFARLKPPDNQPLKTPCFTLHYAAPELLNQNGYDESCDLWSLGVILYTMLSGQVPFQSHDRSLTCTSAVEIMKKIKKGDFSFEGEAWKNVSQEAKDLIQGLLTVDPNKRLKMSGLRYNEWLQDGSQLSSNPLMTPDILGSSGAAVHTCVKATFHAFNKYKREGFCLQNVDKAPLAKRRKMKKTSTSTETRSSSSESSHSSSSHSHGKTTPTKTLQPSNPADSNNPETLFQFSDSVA
Chain of Cyclin-dependent kinase-like 3 (Homo sapiens) (Q8IVW4 whole entry, looked up, the tested form may be a part): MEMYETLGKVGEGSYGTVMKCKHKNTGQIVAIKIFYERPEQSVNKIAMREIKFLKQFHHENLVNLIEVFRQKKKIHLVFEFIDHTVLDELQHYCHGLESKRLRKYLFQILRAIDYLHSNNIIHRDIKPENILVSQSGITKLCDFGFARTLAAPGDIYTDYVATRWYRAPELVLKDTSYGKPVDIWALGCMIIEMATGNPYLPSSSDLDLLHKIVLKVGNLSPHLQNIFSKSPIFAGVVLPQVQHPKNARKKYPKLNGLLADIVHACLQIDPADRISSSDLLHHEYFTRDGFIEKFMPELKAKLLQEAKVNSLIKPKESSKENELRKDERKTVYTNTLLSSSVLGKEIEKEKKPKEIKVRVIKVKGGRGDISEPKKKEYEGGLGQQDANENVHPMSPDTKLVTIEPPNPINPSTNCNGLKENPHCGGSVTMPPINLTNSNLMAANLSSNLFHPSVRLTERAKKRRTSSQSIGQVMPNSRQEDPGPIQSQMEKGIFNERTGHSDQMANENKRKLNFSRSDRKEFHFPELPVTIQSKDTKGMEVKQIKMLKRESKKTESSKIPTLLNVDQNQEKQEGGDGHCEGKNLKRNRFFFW

On to `Cc1cc([C@@H](C)Nc2ccccc2C(=O)O)c2nc(N3CCOCC3)cc(=O)n2c1` [AZD-6482], for which the % of control in assay [1] came to 90%.
In assay [2], `CCC(=O)N1CCN(c2ccc(-n3c(=O)ccc4cnc5ccc(-c6cnc7ccccc7c6)cc5c43)cc2C(F)(F)F)CC1` gave a % of control of 11%.
In the case of `COc1cc(Nc2nc(C)cc(-c3cnn4nc(OC)ccc34)n2)cc(C(F)(F)F)c1`, in assay [3], the % of control stood at 89%.
The compound `Cc1cc(-c2ccnc(Nc3cnn(C)c3)n2)ccc1CNC(=O)N1CC(OC(C)C)C1` came in with a % of control in assay [4] of 42%.
With `CNC(=O)Nc1ccc(-c2nc(N3CC4CCC(C3)O4)c3cnn(C4CCC5(CC4)OCCO5)c3n2)cc1`, the % of inhibition in assay [5] was -5%.
As to `CC[C@@H]1[C@H](F)C(=O)N[C@@H]1COc1nccc2cc(C(N)=O)c(OC)cc12` [ZIMLOVISERTIB], the % of inhibition was 8.7% in assay [6] (at 0.01 µM); 1.8% in assay [6] (at 0.04 µM); -1.4% in assay [6] (at 0.2 µM); -7.6% in assay [6] (at 1 µM); 12.6% in assay [6] (at 5 µM).

The values are drawn from ChEMBL document CHEMBL5465560, “Selectivity Literature for EUbOPEN Chemogenomic Library” (2024).
